Measurements as given in patent US8394786B2, “Quinazoline derivatives” (Janssen Pharmaceutica N.V., priority 2003, dated 2013).

Tests used:
[1] = test system: SKOV3 cells; assay: Serum starved proliferation assay on the ovarian carcinoma SKOV3 cells (C3); format: cell-based; details: EGF stimulated (100 ng/ml, 72 hours, serum free) or 72 hours with compounds, MTT cell viability assay; for IC50: Homo sapiens, SK-OV-3, 72 h, read-out: SKOV3 cell (C3): pIC50 (converted)
Experimental: The ovarian carcinoma cell line (SKOV3) was used in an epidermal growth factor stimulated cell proliferation assay, to assess the inhibitory effect of the compounds on EGF in whole cells.
In a first step the SKOV3 cells were incubated for 24 hours in the presence of 10% FCS serum. In the second step the cells were incubated with the compounds to be tested in a serum free condition (37° C. and 5% (v/v) CO2) and subsequently stimulated for 72 hours with EGF at a final concentration of 100 ng/ml. The effect of the compounds on the EGF stimulation was finally assessed in a standard MTT cell viability assay.
Alternatively, the SKOV3 cells were incubated for 24 hours in the presence of 10% FCS serum. In the second step the cells were incubated for 72 hours with the compounds to be tested and the effect of the compounds on cell proliferation was finally assessed in a standard MTT cell viability assay.

[2] = target: EGFR (Homo sapiens, UniProt P00533); assay: In vitro inhibition of EGFR, Flash Plate or glass-fiber filter technology (C2); format: biochemical; design: 0.5 μg EGFR-kinase domain/well; details: EGFR-kinase domain, 5.0 μM unlabeled ATP; for IC50: read-out: Kinase activity.(C2): pIC50 (converted)
Experimental: The in vitro inhibition of EGFR was assessed using either the Flash Plate technology or the glass-fiber filter technology as described by Davies, S. P. et al., Biochem J. (2000), 351; p. 95-105. The Flash Plate technology is generally described by B. A. Brown et al. in High Throughput Screening (1997), p. 317-328. Editor(s): Devlin, John P. Publisher: Dekker, New York, N.Y.
In the Flash Plate EGFR kinase reaction assay, a kinase substrate consisting of biotinylated poly(L-glutamic acid-L-tyrosine) (poly(GT)biotin), is incubated with the aforementioned protein in the presence of (^33P) radiolabeled ATP. (^33P) phosphorylation of the substrate is subsequently measured as light energy emitted using a streptavidin-coated Flash Plate (PerkinElmer Life Sciences) by trapping and quantifying the binding of the biotin tagged and radiolabeled substrate.
The EGFR kinase reaction is performed at 30° C. for 60 minutes in a 96-well microtiter FlashPlate (PerkinElmer Life Sciences). For each of the tested compounds a full dose response 1·10^−6M to 1·10^−10M has been performed. IRESSA° and Tarceva™ (erlotinib) were used as reference compounds. The 100 μl reaction volume contains 54.5 mM TrisHCl pH 8.0, 10 mM MgCl2, 100 μM Na3VO4, 5.0 μM unlabeled ATP, 1 mM DTT, 0.009% BSA, 0.8 μCi AT^33P, 0.35 μg/well poly(GT)biotin and 0.5 μg EGFR-kinase domain/well.
The reaction is stopped by aspirating the reaction mixture and washing the plate 3× with 200 μl wash/stop buffer (PBS+100 mM EDTA). After the final wash step 200 μl of wash/stop buffer was added to each well and the amount of phosphorylated (^33P) Poly(GT)biotin determined by counting (30 sec/well) in a microtiterplate scintillation counter.
In the glass-fiber filter technology EGFR kinase reaction assay, a kinase substrate consisting of poly(L-glutamic acid-L-tyrosine) (poly(GT)), is incubated with the aforementioned protein in the presence of (^33P) radiolabeled ATP. (^33P) Phosporylation of the substrate is subsequently measured as radioactivity bound on a glassfiber-filter.
The EGFR kinase reaction is performed at 25° C. for 10 minutes in a 96-well microtiterplate. For each of the tested compounds a full dose response 1·10^−6M to 1·10^−10M has been performed. IRESSA° and Tarceva™ (erlotinib) were used as reference compounds. The 25 μl reaction volume contains 60 mM TrisHCl pH 7.5, 3 mM MgCl2, 3 mM Mn Cl2, 3 μM Na3VO4, 50 μg/ml PEG20000, 5.0 μM unlabeled ATP, 1 mM DTT, 0.1 μCi AT^33P, 62.5 ng/well poly(GT) and 0.5 μg EGFR-kinase domain/well.
The reaction is stopped by adding 5 μl of a 3% phosphoric acid solution. 10 μl of the reaction mixture is then spotted onto a Filtermat A filter (Wallac) and washed 3 times for 5 min. in 75 mM phosphoric acid and 1 time for 5 min. in methanol prior to drying and quantification on the Typhoon (Amersham) using a LE phosphorage storage screen.

| Molecule | SKOV3 cell (C3): pIC50 [1] | Kinase activity.(C2): pIC50 [2] | IC50 [1] | IC50 [2] |
| --- | --- | --- | --- | --- |
| 4,6-ethanediylidene-8H-pyrimido[4,5-b][6,1,12,15]benzoxatriazacyclooctadecine-12,15(16H)-dione, 20-chloro-9,10,11,13,14,17,22-heptahydro-23-methoxy-14-methyl- [Compound 139] | 6.8 | 6.4 | – | – |
| 4,6-ethanediylidene-12H-pyrimido[4,5-b]pyrrolo[2,1-1][6,1,10,13]benzoxatriazacyclohexadecin-12-one, 20-chloro-19-fluoro-8,9,10,11,12a,13,14,15,17,22-decahydro-23-methoxy- [Compound 103] | 7.3 | 7.2 | – | – |
| 4,6-ethenopyrimido[4,5-b][6,1,9,14]benzoxatriazacycloheptadecine-9,14(8H,15H)-dione, 19-chloro-10,11,12,13,16,21-hexahydro-22-methoxy- [Compound 150] | 5.1 | 7.7 | – | – |
| COc1cc2ncnc3c2cc1OCCCCNCCc1ccc(Cl)cc1N3 [Compound 32, 4,6-ethanediylidenepyrimido[4,5-b][6,1,11]benzoxadiazacyclopentadecine, 17-chloro-8,9,10,11,12,13,14,19-octahydro-20-methoxy-] | – | – | 288 nM | 3.98 nM |
| COc1cc2ncnc3c2cc1OCCNCC(=O)NCCCc1ccc(Cl)cc1N3 [Compound 42, 4,6-ethanediylidenepyrimido[4,5-b][6,1,9,12]benzoxatriazacycloheptadecin-12(13H)-one, 19-chloro-8,9,10,11,14,15,16,21-octahydro-22-methoxy-] | – | – | 63.1 nM | 501 nM |
| COc1cc2ncnc3c2cc1OCCN(C(=O)CN(C)CCO)CC(=O)NCCCc1ccc(Cl)cc1N3 [Compound 43, 4,6-ethanediylidenepyrimido[4,5-b][6,1,9,12]benzoxatriazacycloheptadecin-12(13H)-one, 19-chloro-8,9,10,11,14,15,16,21-octahydro-10-[[(2-hydroxyethyl)methylamino]acetyl]-22-methoxy-] | – | – | 501 nM | 79.4 nM |
| COc1cc2ncnc3c2cc1OCCN(C(=O)CNC(CO)CO)CC(=O)NCCCc1ccc(Cl)cc1N3 [Compound 44, 4,6-ethanediylidenepyrimido[4,5-b][6,1,9,12]benzoxatriazacycloheptadecin-12(13H)-one, 19-chloro-8,9,10,11,14,15,16,21-octahydro-10-[[[2-hydroxy-1-(hydroxymethyl)ethyl]amino]acetyl]-22-methoxy-] | – | – | 7940 nM | 631 nM |
| COc1cc2ncnc3c2cc1OCCN(C(=O)CN1CCOC(CO)C1)CC(=O)NCCCc1ccc(Cl)cc1N3 (stereo not drawn) [Compound 45, 4,6-ethanediylidenepyrimido[4,5-b][6,1,9,12]benzoxatriazacycloheptadecin-12(13H)-one, 19-chloro-8,9,10,11,14,15,16,21-octahydro-10-[[2-(hydroxymethyl)-4-morpholinyl]acetyl]-22-methoxy-] | – | – | 10000 nM | 158 nM |
| COc1cc2ncnc3c2cc1OCCN(C(=O)CNCCc1ccncc1)CC(=O)NCCCc1ccc(Cl)cc1N3 [Compound 46, 4,6-ethanediylidenepyrimido[4,5-b][6,1,9,12]benzoxatriazacycloheptadecin-12(13H)-one, 19-chloro-8,9,10,11,14,15,16,21-octahydro-22-methoxy-10-[[[2-(4-pyridinyl)ethyl]amino]acetyl]-] | – | – | 7940 nM | 200 nM |
| COc1cc2ncnc3c2cc1OCCN(C(=O)CN(C)CCN(C)C)CC(=O)NCCCc1ccc(Cl)cc1N3 [Compound 47, 4,6-ethanediylidenepyrimido[4,5-b][6,1,9,12]benzoxatriazacycloheptadecin-12(13H)-one, 19-chloro-10-[[[2-(dimethylamino)ethyl]methylamino]acetyl]-8,9,10,11,14,15,16,21-octahydro-22-methoxy-] | – | – | 1580 nM | 126 nM |
| COCCNCC(=O)N1CCOc2cc3c(ncnc3cc2OC)Nc2cc(Cl)ccc2CCCNC(=O)C1 [Compound 48, 4,6-ethanediylidenepyrimido[4,5-b][6,1,9,12]benzoxatriazacycloheptadecin-12(13H)-one, 19-chloro-8,9,10,11,14,15,16,21-octahydro-22-methoxy-10-[[(2-methoxyethyl)amino]acetyl]-] | – | – | 1580 nM | 316 nM |
| COCCCNCC(=O)N1CCOc2cc3c(ncnc3cc2OC)Nc2cc(Cl)ccc2CCCNC(=O)C1 [Compound 49, 4,6-ethanediylidenepyrimido[4,5-b][6,1,9,12]benzoxatriazacycloheptadecin-12(13H)-one, 19-chloro-8,9,10,11,14,15,16,21-octahydro-22-methoxy-10-[[(3-methoxypropyl)amino]acetyl]-] | – | – | 794 nM | 398 nM |
| COc1cc2ncnc3c2cc1OCCN(C(=O)CN1CCN(C)CC1)CC(=O)NCCCc1ccc(Cl)cc1N3 [Compound 51, 4,6-ethanediylidenepyrimido[4,5-b][6,1,9,12]benzoxatriazacycloheptadecin-12(13H)-one, 19-chloro-8,9,10,11,14,15,16,21-octahydro-22-methoxy-10-[(4-methyl-1-piperazinyl)acetyl]-] | – | – | 398 nM | – |
| COc1cc2ncnc3c2cc1OCCCC=CCC(NC(=O)OC(C)(C)C)C(=O)NCc1ccc(Cl)cc1N3 (stereo not drawn) [Compound 110, carbamic acid, (20-chloro-9,10,13,14,15,16,17,22-octahydro-23-methoxy-15-oxo-4,6-ethanediylidene-8H-pyrimido[4,5-b][6,1,15]benzoxadiazacyclooctadecin-14-yl)-, 1,1-dimethylethyl ester] | – | – | – | 3980 nM |
| CCC(C)C1NC(=O)COc2cc3c(ncnc3cc2OC)Nc2ccccc2CNC1=O (stereo not drawn) [Compound 124, 4,6-ethanediylidenepyrimido[4,5-b][6,1,9,12]benzoxatriazacyclopentadecine-9,12(8H,13H)-dione, 10,11,14,19-tetrahydro-20-methoxy-11-(1-methylpropyl)-] | – | – | 10000 nM | – |
| COc1cc2ncnc3c2cc1OCC(=O)NC(C)(C)C(=O)NCc1ccc(Cl)cc1N3 [Compound 132, 4,6-ethanediylidenepyrimido[4,5-b][6,1,9,12]benzoxatriazacyclopentadecine-9,12(8H,13H)-dione, 17-chloro-10,11,14,19-tetrahydro-20-methoxy-11,11-dimethyl-] | – | – | 10000 nM | – |
| COc1cc2ncnc3c2cc1OCC(=O)NCC(=O)NCc1ccccc1N3 [Compound 156, 4,6-ethanediylidenepyrimido[4,5-b][6,1,9,12]benzoxatriazacyclopentadecine-9,12(8H,13H)-dione, 10,11,14,19-tetrahydro-20-methoxy-] | – | – | 10000 nM | – |
| COc1cc2ncnc3c2cc1OCC(=O)NCCC(=O)NCc1ccccc1N3 [Compound 157, 4,6-ethanediylidene-8H-pyrimido[4,5-b][6,1,9,13]benzoxatriazacyclohexadecine-9,13(10H,14H)-dione, 11,12,15,20-tetrahydro-21-methoxy-] | – | – | 10000 nM | – |
